Measured values from patent US9139532B2, “Pyrazolyl guanidine F1F0-atpase inhibitors and therapeutic uses thereof” (Lycera Corporation, priority 2010, dated 2015).
pEC50, pIC50: −log10 of the molar value. Where two headings read alike, the source gives them in different places.

Columns and labels:
[1] = target: T1, F1F0-ATPase (Bos taurus, UniProt P13621); assay: Inhibition of F1F0-ATPase activity in synthesizing ATP; type: biochemical; settings: inhibition of ATP synthesis by F1F0-ATPase; read-out: ATP Syn IC50
T1 construct: from tissue

[2] = system: Ramos cells; assay: Cytotoxicity in Ramos cells; type: cell-based; settings: cytotoxicity in Ramos cells, read-out: Ramos Cell EC50

| Structure (SMILES) | pIC50 [1] | pEC50 ([2]; Homo sapiens) | pEC50 [2] |
| --- | --- | --- | --- |
| CC(C)(C)N/C(=N/C(=O)c1ccc(C(F)(F)F)cc1)Nc1cc(C(=O)O)n[nH]1 [Compound A-565, (Z)-5-(3-(tert-Butyl)-2-(4-(trifluoromethyl)benzoyl)guanidino)-1H-pyrazole-3-carboxylic acid] | < 5.00 | < 5.00 | – |
| Cc1cccc(C(=O)/N=C(/NCc2ccc(F)cc2Cl)Nc2cc(C(F)(F)F)[nH]n2)c1 [Compound A-551] | > 5.00 | – | > 5.00 |
| CCCC(C)NC(=NC(=O)c1ccc(Cl)c(F)c1)Nc1cc(-c2cc(F)cc(F)c2)n[nH]1 (stereo not shown) [Compound A-348] | > 5.00 | > 5.00 | – |
| COC[C@H](C)N/C(=N/C(=O)c1ccc(F)cc1F)Nc1cc(-c2ccc(F)cc2)n[nH]1 [Compound A-488] | > 5.00 | – | > 5.00 |
| O=C(N=C(Nc1cc(F)cc(Cl)c1)Nc1cc(-c2cccc(Cl)c2)[nH]n1)c1ccc(C(F)(F)F)cc1 [Compound A-446] | > 5.00 | < 5.00 | – |
| CC(C)(C)N/C(=N/C(=O)c1ccc(Cl)c(F)c1)Nc1cc(C(F)(F)F)[nH]n1 [Compound A-40] | > 5.00 | > 5.00 | – |
| CC(C)(C)NC(=NC(=O)c1ccc(C(F)(F)F)cc1)Nc1cc(-c2ccccc2)[nH]n1 [Compound A-153] | > 5.00 | > 5.00 | – |
| Cc1cc(C(=O)/N=C(/NCc2ccc(F)cc2Cl)Nc2cc(C(F)(F)F)[nH]n2)ccn1 [Compound A-86] | > 5.00 | < 5.00 | – |
| Cc1cc(N/C(=N\C(=O)c2ccc(F)c(F)c2)NCCC(F)(F)F)n[nH]1 [Compound A-186] | < 5.00 | – | < 5.00 |
| O=C(N=C(NCc1ccc(F)cc1Cl)Nc1cc(-c2ccc(Cl)cc2)n[nH]1)c1ccc(Cl)c(F)c1 [Compound A-473] | > 5.00 | < 5.00 | – |
| CCOCC(C)NC(=NC(=O)c1ccc(F)c(F)c1)Nc1cc(-c2ccc(Cl)cc2)n[nH]1 (stereo not shown) [Compound A-258] | > 5.00 | – | > 5.00 |
| O=C(/N=C(/NCc1ccc(F)c(Cl)c1)Nc1cc(C(F)(F)F)[nH]n1)c1ccc(F)c(F)c1 [Compound A-25] | > 5.00 | > 5.00 | – |
| O=C(/N=C(\Nc1cc(C(F)(F)F)n[nH]1)NC1CCCOC1)c1ccc(C(F)(F)F)cc1 (stereo not shown) [Compound A-96] | > 5.00 | > 5.00 | – |
| O=C(N=C(Nc1cc(-c2ccc(Cl)cc2)n[nH]1)NC1CCCC1)c1ccc(C(F)(F)F)cc1 [Compound A-239] | > 5.00 | < 5.00 | – |
| Cc1ccc(-c2cc(N/C(=N\C(=O)c3ccc(F)c(F)c3)NCC(C)C)[nH]n2)cc1F [Compound A-323] | > 5.00 | – | > 5.00 |
| O=C(/N=C(/NCc1ccc(F)cc1Cl)Nc1cc(-c2ccccc2)n[nH]1)c1ccc(F)c(F)c1 [Compound A-483] | > 5.00 | – | < 5.00 |
| CC(C)CN/C(=N/C(=O)c1ccc(F)cc1)Nc1cc(-c2ccc(Cl)cc2)n[nH]1 [Compound A-254] | > 5.00 | – | > 5.00 |
| CC(C)CN/C(=N/C(=O)c1ccc(Cl)c(F)c1)Nc1cc(-c2ccc(F)cc2)n[nH]1 [Compound A-220] | > 5.00 | – | > 5.00 |
| O=C(N=C(Nc1cc(-c2cc(F)cc(F)c2)n[nH]1)NC1CCCC1)c1cccc(F)c1 [Compound A-369] | > 5.00 | > 5.00 | – |
| CCC(C)CNC(=NC(=O)c1cccc(C#N)c1)Nc1cc(-c2ccc(Cl)cc2)n[nH]1 (stereo not shown) [Compound A-300] | > 5.00 | > 5.00 | – |

| Structure (SMILES) | pIC50 [1] | pEC50 ([2]; Homo sapiens) | pEC50 [2] |
| --- | --- | --- | --- |
| Cn1nc(C(F)(F)F)cc1N/C(=N\C(=O)c1ccc(C(F)(F)F)cc1)Nc1cc(F)cc(Cl)c1 [Compound A-48] | > 5.00 | > 5.00 | – |
| COc1cccc(C(=O)/N=C(/Nc2cc(F)cc(Cl)c2)Nc2cc(-c3ccc(Cl)cc3)[nH]n2)c1 [Compound A-168] | > 5.00 | – | > 5.00 |
| CN(/C(=N\C(=O)c1ccc(F)c(F)c1)NC(C)(C)C)c1cc(C(F)(F)F)[nH]n1 [Compound A-44] | < 5.00 | < 5.00 | – |
| O=C(/N=C(/NCC(F)(F)F)Nc1cc(C(F)(F)F)[nH]n1)c1ccc(C(F)(F)F)cc1 [Compound A-1] | > 5.00 | > 5.00 | – |
| O=C(/N=C(/NCc1ccc(F)cc1Cl)Nc1cc(-c2ccc(F)cc2)[nH]n1)c1ccc(Cl)c(F)c1 [Compound A-142] | > 5.00 | – | > 5.00 |
| CC(C)(C)N/C(=N/C(=O)c1ccc(S(C)(=O)=O)cc1)Nc1cc(-c2ccc(F)cc2)n[nH]1 [Compound A-498] | > 5.00 | – | > 5.00 |
| COc1ccc(C(=O)/N=C(\Nc2cc(-c3ccc(F)cc3)n[nH]2)NC(C)(C)C)c(F)c1 [Compound A-373] | > 5.00 | – | > 5.00 |
| COc1ccc(-c2cc(N/C(=N\C(=O)c3ccc(C(F)(F)F)cc3)NC3CCCC3)[nH]n2)cc1F [Compound A-574] | > 5.00 | – | < 5.00 |
| CC(C)CN/C(=N/C(=O)c1ccc(C(F)(F)F)cc1)Nc1cc(-c2ccc(Cl)cc2)n[nH]1 [Compound A-240] | > 5.00 | – | > 5.00 |
| O=C(/N=C(\Nc1cc(-c2cc(F)cc(F)c2)n[nH]1)NC1CCCC1)c1ccc(C(F)(F)F)cc1 [Compound A-291] | > 5.00 | – | > 5.00 |
| O=C(/N=C(/NCc1ccc(Cl)c(F)c1)Nc1cc(C(F)(F)F)[nH]n1)c1ccc(F)c(F)c1 [Compound A-26] | > 5.00 | > 5.00 | – |
| CC(C)(C)CN/C(=N/C(=O)c1cccc(C(F)(F)F)c1)Nc1cc(C(F)(F)F)[nH]n1 [Compound A-76] | > 5.00 | > 5.00 | – |
| CC(C)N/C(=N/C(=O)c1ccc(F)c(F)c1)Nc1cc(-c2cc(F)cc(F)c2)n[nH]1 [Compound A-366] | > 5.00 | – | > 5.00 |
| O=C(/N=C(\Nc1cc(-c2ccc(F)cc2)n[nH]1)NC1CCC(F)(F)CC1)c1ccc(F)cc1 [Compound A-501] | > 5.00 | – | > 5.00 |
| COc1ccc(C(=O)/N=C(\Nc2cc(-c3ccc(F)cc3)[nH]n2)NC(C)(C)C)cc1 [Compound A-539] | > 5.00 | – | > 5.00 |
| O=C(/N=C(\Nc1cc(C(F)(F)F)n[nH]1)NC1CCOCC1)c1ccc(Cl)c(F)c1 [Compound A-118] | > 5.00 | > 5.00 | – |
| COc1cccc(F)c1C(=O)/N=C(\Nc1cc(-c2ccc(F)cc2)n[nH]1)NC(C)(C)C [Compound A-387] | > 5.00 | – | < 5.00 |
| COC[C@H](C)NC(=NC(=O)c1cccc(S(C)(=O)=O)c1)Nc1cc(-c2ccc(F)cc2)n[nH]1 [Compound A-491] | > 5.00 | < 5.00 | – |
| O=C(/N=C(/NCc1ccc(Cl)cc1F)Nc1cc(C(F)(F)F)[nH]n1)c1ccc(Cl)cc1 [Compound A-33] | > 5.00 | > 5.00 | – |
| O=C(/N=C(\Nc1cc(-c2ccc(F)cc2)[nH]n1)N1CCCC1)c1ccc(F)cc1 [Compound A-156] | < 5.00 | – | < 5.00 |

| Structure (SMILES) | pIC50 [1] | pEC50 ([2]; Homo sapiens) | pEC50 [2] |
| --- | --- | --- | --- |
| Cc1ccc(C(=O)/N=C(\Nc2cc(-c3ccc(F)cc3)[nH]n2)NC(C)(C)C)cc1F [Compound A-554] | > 5.00 | – | > 5.00 |
| Cc1cc(C(=O)/N=C(/NCc2ccccc2C)Nc2cc(-c3ccc(F)cc3)[nH]n2)ccc1F [Compound A-393] | > 5.00 | – | > 5.00 |
| O=C(N=C(Nc1cc(-c2cc(F)cc(F)c2)n[nH]1)NC1CCCC1)c1ccc(F)c(F)c1 [Compound A-365] | > 5.00 | > 5.00 | – |
| CNC(=O)c1cc(NC(=NC(=O)c2ccc(C(F)(F)F)cc2)Nc2ccc(F)cc2Cl)[nH]n1 [Compound A-337] | < 5.00 | < 5.00 | – |
| CCOCC(C)NC(=NC(=O)c1ccc(Cl)c(F)c1)Nc1cc(-c2ccc(F)cc2)n[nH]1 (stereo not shown) [Compound A-217] | > 5.00 | > 5.00 | – |
| COc1cccc(C(=O)/N=C(/NCC(C)C)Nc2cc(-c3ccc(F)cc3)[nH]n2)c1 [Compound A-171] | > 5.00 | – | > 5.00 |
| N#CC1(N/C(=N/C(=O)c2ccc(Cl)c(F)c2)Nc2cc(-c3cc(F)cc(F)c3)n[nH]2)CC1 [Compound A-343] | > 5.00 | < 5.00 | – |
| O=C(/N=C(/Nc1cc(F)cc(Cl)c1)Nc1cc(-c2ccc(F)cc2)[nH]n1)c1ccc(C(F)(F)F)cc1 [Compound A-154] | > 5.00 | – | > 5.00 |
| O=C(/N=C(/NCc1ccc(Cl)cc1F)Nc1cc(C(F)(F)F)[nH]n1)c1ccc(C(F)(F)F)cc1 [Compound A-21] | > 5.00 | > 5.00 | – |
| CC(C)CNC(=NC(=O)c1ccc(N2CCOCC2)nc1)Nc1cc(-c2ccc(F)cc2)n[nH]1 [Compound A-163] | > 5.00 | > 5.00 | – |
| COCC(C)NC(=NC(=O)c1ccc(S(C)(=O)=O)cc1)Nc1cc(-c2ccc(F)cc2)n[nH]1 (stereo not shown) [Compound A-497] | > 5.00 | > 5.00 | – |
| CC(C)N/C(=N/C(=O)c1cccc(F)c1)Nc1cc(-c2ccc(Cl)cc2)n[nH]1 [Compound A-386] | > 5.00 | – | > 5.00 |
| CCOC[C@H](C)NC(=NC(=O)c1ccc(Cl)cc1)Nc1cc(-c2ccc(F)cc2)n[nH]1 [Compound A-265] | > 5.00 | > 5.00 | – |
| O=C(N=C(Nc1cc(-c2ccc(Cl)cc2)n[nH]1)NC1CCC1)c1ccc(F)c(F)c1 [Compound A-224] | > 5.00 | < 5.00 | – |
| Cc1cc(N/C(=N\C(=O)c2ccc(C(F)(F)F)cc2)NCCC(F)(F)F)n[nH]1 [Compound A-183] | > 5.00 | – | > 5.00 |
| CC(N/C(=N/C(=O)c1ccc(F)c(F)c1)Nc1cc(C(F)(F)F)[nH]n1)c1ccc(Cl)cc1 (stereo not shown) [Compound A-29] | > 5.00 | > 5.00 | – |
| CCc1ccc(-c2cc(N/C(=N\C(=O)c3ccc(C(F)(F)F)cc3)NC(C)(C)C)[nH]n2)cc1 [Compound A-432] | > 5.00 | – | < 5.00 |
| CC(C)(C)CN/C(=N/C(=O)c1ccc(C(F)(F)F)cc1)Nc1cc(C(F)F)[nH]n1 [Compound A-68] | > 5.00 | > 5.00 | – |
| COC[C@H](C)N/C(=N/C(=O)c1ccc(Cl)cc1)Nc1cc(-c2ccc(F)cc2)n[nH]1 [Compound A-272] | > 5.00 | > 5.00 | – |
